Data published in patent US9546157B2, “Asymmetric piperidinyl-substituted ureas as medicines” (Helsinn Healthcare SA, priority 2014, dated 2017).

Legend:
GHSR1a [1] = target: T1, GHSR1a (Homo sapiens, UniProt Q92847); experiment: Calcium FLIPR assay, GHSR-1a agonism; type: cell-based; set-up: Emax: unit not given here; conditions: HEK293/GHSR1a cells
T1 construct: expressed in transfected cells; host or cells: HEK293
Summary of the method: (§1)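 Calcium dye-loaded HEK293/GHSR1a cells were monitored by FLIPR fluorescence for 2 min after additions at t=20 s. For antagonist mode, compound was co-added with ghrelin (10 nM) and scored by lowering the ghrelin signal. Agonist mode added compound alone; EC50 and IC50 came from dose-response data.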

C57BL/6J mice = experiment: Food intake test in mouse (GHSR1a antagonists); type: in vivo; conditions: for inhibition in vivo at 10 mg/kg: ip, 1 h, i.p. 10 mg/kg
Description: Male C57BL/6J mice, 18-22 g body weight, were fasted overnight (16 h before compound administration) and placed in a regular light dark cycle (6:00-18:00 light/18:00-6:00 dark). After 1 wk acclimation, animals were sorted into two groups (n=6 each, 2 per cage) based on body weight. Animals in group one were be treated with vehicle and animals in group 2 were treated with the test agent (n=6 for each group). The cumulative food intake was evaluated at 1, 2, 4, 8 and 24 hrs after drug or vehicle treatment. Food intake was measured by subtracting uneaten food from the initial premeasured food.

[2] = Metabolic Stability (H = Human); type: in vitro ADME
[3] = Metabolic Stability (M = Mouse); type: in vitro ADME
GHSR1a [4] = target: T1, GHSR1a; experiment: Calcium FLIPR assay, GHSR-1a antagonism (reduction of ghrelin response); type: cell-based; conditions: HEK293/GHSR1a cells, ghrelin 10 nM
Summary of the method: as §1

[5] = PO 10 mg/kg + ANA (ANAM) 30 mg/kg mice

T1 sequence (Q92847 whole entry): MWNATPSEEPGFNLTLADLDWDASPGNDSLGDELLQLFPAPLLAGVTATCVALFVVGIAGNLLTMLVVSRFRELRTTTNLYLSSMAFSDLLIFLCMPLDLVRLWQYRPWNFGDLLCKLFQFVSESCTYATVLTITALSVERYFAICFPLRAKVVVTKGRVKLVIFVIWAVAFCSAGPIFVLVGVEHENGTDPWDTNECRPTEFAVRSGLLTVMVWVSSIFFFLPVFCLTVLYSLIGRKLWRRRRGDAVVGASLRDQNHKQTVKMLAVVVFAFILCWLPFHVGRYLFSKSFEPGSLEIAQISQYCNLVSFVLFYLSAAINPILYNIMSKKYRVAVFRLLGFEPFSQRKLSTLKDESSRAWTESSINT

EC50 (GHSR1a [1])	Metabolic Stability H [2]	Metabolic Stability M [3]	IC50 (GHSR1a [4])	SMILES	also measured
3 nM	Medium H Medium M	Medium H Medium M		CC(NC(=O)N(C)C1CCN(C)CC1)c1ccc(-c2cccs2)c(Cl)c1Cl (single isomer, unassigned) [Compound H0563, 3-(1-(2,3-dichloro-4-(thiophen-2-yl)phenyl)ethyl)-1-methyl-1-(1-methylpiperidin-4-yl)urea]	Emax (GHSR1a [1]): 2100; inhibition in vivo at 10 mg/kg (C57BL/6J mice; Mus musculus): 65%
> 30000 nM	High	Medium	5 nM	C#Cc1ccc(C(C)NC(=O)N(C)C2CCN(C)CC2)c(Cl)c1Cl (single isomer, unassigned) [Compound H0677, 3-(1-(2,3-dichloro-4-ethynylphenyl)ethyl)-1-methyl-1-(1-methylpiperidin-4-yl)urea]	Mouse Food Intake, result in words (C57BL/6J mice; PO, dose not given): NSE
> 30000 nM	Medium H Medium M	Medium H Medium M	55 nM	C#Cc1ccc(C(C)NC(=O)N(C)C2CCN(C)CC2)c(Cl)c1Cl (single isomer, unassigned) [Compound H0678, 3-(1-(2,3-dichloro-4-ethynylphenyl)ethyl)-1-methyl-1-(1-methylpiperidin-4-yl)urea]	inhibition in vivo at 10 mg/kg (C57BL/6J mice; Mus musculus): 78%; Mouse Food Intake, result in words (C57BL/6J mice; PO, dose not given): no effect
6 nM			5 nM	CN1CCC(N(O)C(=O)NC(CC2CC2)c2ccc(-c3cnccn3)c(Cl)c2Cl)CC1 (single isomer, unassigned) [Compound H0782, 3-(2-cyclopropyl-1-(2,3-dichloro-4-(pyrazin-2-yl)phenyl)ethyl)-1-hydroxy-1-(1-methylpiperidin-4-yl)urea]	Emax (GHSR1a [1]): 1923; inhibition in vivo at 10 mg/kg (C57BL/6J mice; Mus musculus): 93%
3.5 nM			1.7 nM	CC(NC(=O)N(C)C1CCN(C)CC1)c1ccc(C#CC2CC2)c(Cl)c1Cl (single isomer, unassigned) [Compound H0818, 3-(1-(2,3-dichloro-4-(cyclopropylethynyl)phenyl)ethyl)-1-methyl-1-(1-methylpiperidin-4-yl)urea]	Emax (GHSR1a [1]): 1915; inhibition in vivo at 30 mg/kg (C57BL/6J mice; Mus musculus, po, 4 h, 30 mg/kg PO fasted mice): 22%
140 nM			65 nM	CC(NC(=O)N(C)C1CCN(C)CC1)c1ccc(C#CC2CC2)c(Cl)c1Cl (single isomer, unassigned) [Compound H0819, 3-(1-(2,3-dichloro-4-(cyclopropylethynyl)phenyl)ethyl)-1-methyl-1-(1-methylpiperidin-4-yl)urea]	Emax (GHSR1a [1]): 1419; Mouse Food Intake, result in words (C57BL/6J mice; 30 mg/kg PO fasted mice): 30 mg/kg PO fasted mice NSE
> 30000 nM	High	medium	3 nM	C[C@H](NC(=O)N(C)C1CCN(C)C1)c1ccc(-c2cnccn2)c(Cl)c1Cl (single isomer, unassigned) [Compound H0862]	Mouse Food Intake, result in words (C57BL/6J mice; PO (10 mg/kg) + ANA, mice, ANA dose not given): PO (10 mg/kg) + ANA: no activity in mice
> 30000 nM	Medium	Meidum	12 nM	CC(NC(=O)N(C)C1CCN(C)CC1)c1ccc(Cl)c(Cl)c1Cl (stereo not drawn) [Compound H0381, 1-methyl-1-(1-methylpiperidin-4-yl)-3-(1-(2,3,4-trichlorophenyl)ethyl)urea]	Mouse Food Intake, result in words (C57BL/6J mice; i.p., dose not given): IP: No effect
> 30000 nM	Medium	High	20 nM	CN1CCC(N(C)C(=O)NC(CC2CC2)c2ccc(-c3cncc(N)c3)c(Cl)c2Cl)CC1 (stereo not drawn) [Compound H0721, 3-(1-(4-(5-aminopyridin-3-yl)-2,3-dichlorophenyl)-2-cyclopropylethyl)-1-methyl-1-(1-methylpiperidin-4-yl)urea]	
> 30000 nM	Medium H Medium M	Medium H Medium M	5 nM	CN1CCC(N(C)C(=O)NC(CC2CC2)c2ccc(-c3ccc(C(N)=O)s3)c(Cl)c2Cl)CC1 (stereo not drawn) [Compound H0728, 5-(2,3-dichloro-4-(2-cyclopropyl-1-(3-methyl-3-(1-methylpiperidin-4-yl)ureido)ethyl)phenyl)thiophene-2-carboxamide]	
> 30000 nM			94 nM	C[C@@H](NC(=O)N(C)C1CCN(C)CC1)c1ccc(-c2cnccn2)c(Cl)c1Cl [Compound H0817, (R)-3-(1-(2,3-dicholoro-4-(pyrazin-2-yl)phenyl)ethyl)-1-methyl-1-(1-methylpiperidin-4-yl)urea]	Mouse Food Intake, result in words (C57BL/6J mice; 30 mg/kg PO fasted mice): 30 mg/kg PO fasted mice NSE
21 nM			4 nM	C[C@H](NC(=O)N(C)C1CCN(C)C1)c1ccc(C#CC2CC2)c(Cl)c1Cl (stereo partly drawn) [Compound H0838, 3-((S)-1-(2,3-dichloro-4-(cyclopropylethynyl)phenyl)ethyl)-1-methyl-1-(1-methylpyrrolidin-3-yl)urea]	Emax (GHSR1a [1]): 1340; Mouse Food Intake increase, activity up to (C57BL/6J mice; 30 mg/kg PO mice): ≤ 8 h; Mouse Food Intake % increase (C57BL/6J mice; 2 h, 30 mg/kg PO mice): 205%
> 30000 nM			47 nM	CC(NC(=O)N(C)C1CCN(C)CC1)c1ccc(-c2nccnc2F)c(Cl)c1Cl (stereo not drawn) [Compound H0840]	Mouse Food Intake, result in words (C57BL/6J mice; [5]): PO 10 mg/kg + ANA 30 mg/kg mice: NSE
> 30000 nM			118 nM	CC(NC(=O)N(C)C1CCN(C)CC1)c1ccc(-c2csc(C3CC3)n2)c(Cl)c1Cl (stereo not drawn) [Compound H0841, 3-(1-(2,3-dichloro-4-(2-cyclopropylthiazol-4-yl)phenyl)ethyl)-1-methyl-1-(1-methylpiperidin-4-yl)urea]	Mouse Food Intake, result in words (C57BL/6J mice; [5]): PO 10 mg/kg + ANAM 30 mg/kg mice: NSE
> 30000 nM	Medium	Low	10 nM	CCC(NC(=O)N(C)C1CCN(C)C1)c1ccc(-c2cnccn2)c(Cl)c1Cl (stereo not drawn) [Compound H0857, 3-(1-(2,3-dichloro-4-(pyrazin-2-yl)phenyl)propyl)-1-methyl-1-(1-methylpyrrolidin-3-yl)urea]	
> 30000 nM	Medium H Medium M	Medium H Medium M	8 nM	CCC(NC(=O)N(C)[C@@H]1CCN(C)CC1(C)C)c1ccc(-c2cnccn2)c(Cl)c1Cl (stereo partly drawn) [Compound H0858, 3-(1-(2,3-dichloro-4-(pyrazin-2-yl)phenyl)propyl)-1-methyl-1-((R)-1,3,3-trimethylpiperidin-4-yl)urea]	
> 30000 nM	Medium	High	3 nM	CCC(NC(=O)N(C)C1CCN(C)CC1)c1ccc(-c2cncc(F)n2)c(Cl)c1Cl (stereo not drawn) [Compound H0863, 3-(1-(2,3-dichloro-4-(6-fluoropyrazin-2-yl)phenyl)propyl)-1-methyl-1-(1-methylpiperidin-4-yl)urea]	
> 30000 nM	High	medium	6 nM	C[C@H](NC(=O)N(C)C1CCN(C)C1)c1ccc(-c2cncc(F)n2)c(Cl)c1Cl (stereo partly drawn) [Compound H0872, 3-((S)-1-(2,3-dichloro-4-(6-fluoropyrazin-2-yl)phenyl)ethyl)-1-methyl-1-(1-methylpyrrolidin-3-yl)urea]	
> 30000 nM	High H High M	High H High M	6 nM	CCN(C(=O)N[C@@H](C)c1ccc(-c2cnccn2)c(Cl)c1Cl)C1CCN(C)CC1 [Compound H0889, (S)-3-(1-(2,3-dichloro-4-(pyrazin-2-yl)phenyl)ethyl)-1-ethyl-1-(1-methylpiperidin-4-yl)urea]	
> 30000 nM	High H High M	High H High M	1.6 nM	C[C@H](NC(=O)N(C)[C@@H]1CCN(C)CC1(C)C)c1ccc(-c2cnccn2)c(Cl)c1Cl [Compound H0890, 3-((S)-1-(2,3-dichloro-4-(pyrazin-2-yl)phenyl)ethyl)-1-methyl-1-((R)-1,3,3-trimethylpiperidin-4-yl)urea]	
> 30000 nM	Medium	High	1600 nM	CN1CCC(N(C)C(=O)N[C@@H](c2ccc(-c3cnccn3)c(Cl)c2Cl)C(F)(F)F)CC1 [Compound H0899, (S)-3-(1-(2,3-dichloro-4-(pyrazin-2-yl)phenyl)-2,2,2-trifluoroethyl)-1-methyl-1-(1-methylpiperidin-4-yl)urea]	
> 30000 nM	Medium	High	8 nM	CN1CCC(N(C)C(=O)NC(c2ccc(-c3cncc(F)n3)c(Cl)c2Cl)C(F)(F)F)CC1 (stereo not drawn) [Compound H0908, 3-(1-(2,3-dichloro-4-(6-fluoropyrazin-2-yl)phenyl)-2,2,2-trifluoroethyl)-1-methyl-1-(1-methylpiperidin-4-yl)urea]	
> 30000 nM	Medium	High	12 nM	CCN(C(=O)NC(c1ccc(-c2cnccn2)c(Cl)c1Cl)C(F)(F)F)C1CCN(C)CC1 (stereo not drawn) [Compound H0909, 3-(1-(2,3-dichloro-4-(pyrazin-2-yl)phenyl)-2,2,2-trifluoroethyl)-1-ethyl-1-(1-methylpiperidin-4-yl)urea]	
